Data taken from US9695155B2, “Herbicidal substituted pyrimidinyloxy benzene compounds” (E. I. DU PONT DE NEMOURS AND COMPANY, priority 2013, dated 2017).

Experiments:
[1] = test system: wheat, winter; assay: Test C postemergence; format: in vivo, Triticum aestivum; settings: for Wheat plant response rating / Plant response rating, Wheat: scale 0 to 100 (0 no effect, 100 complete control)
Excerpt: (§1) Seeds of plant species selected from blackgrass (Alopecurus myosuroides), Italian ryegrass (Lolium multiflorum), wheat, winter (winter wheat, Triticum aestivum), galium (catchweed bedstraw, Galium aparine), corn (Zea mays), large (Lg) crabgrass (Digitaria sanguinalis), giant foxtail (Setaria faberii), johnsongrass (Sorghum halepense), lambsquarters (Chenopodium album), morningglory (Ipomoea coccinea), yellow nutsedge (Cyperus esculentus), pigweed (Amaranthus retroflexus), ragweed (common ragweed, Ambrosia elatior), soybean (Glycine max), barnyardgrass (Echinochloa crus-galli), oilseed rape (Brassica napus), waterhemp (common waterhemp, Amaranthus rudis), kochia (Kochia scoparia), wild oat (Avena fatua), surinam grass (Brachiaria decumbens), foxtail, green (green foxtail, Setaria viridis), goosegrass (Eleusine indica), bromegrass, downy (downy bromegrass, Bromus tectorum), nightshade (eastern black nightshade, Solanum ptycanthum), cocklebur (common cocklebur, Xanthium strumarium), cupgrass, woolly (woolly cupgrass, Eriochloa villosa), bermudagrass (Cynodon dactylon), sunflower, (common oilseed sunflower, Helianthus annuus), Russian thistle (Salsola kali), and velvetleaf (Abutilon theophrasti) were planted into a blend of loam soil and sand and treated preemergence with test chemicals formulated in a non-phytotoxic solvent mixture which included a surfactant.
(§2) At the same time, plants selected from these crop and weed species and also barley, winter (winter barley, Hordeum vulgare), windgrass (Apera spica-venti), chickweed (common chickweed, Stellaria media), deadnettle (henbit deadnettle, Lamium amplexicaule), and canarygrass (littleseed canarygrass, Phalaris minor) were planted in pots containing Redi-Earth® planting medium (Scotts Company, 14111 Scottslawn Road, Marysville, Ohio 43041) comprising spaghnum peat moss, vermiculite, wetting agent and starter nutrients and treated with postemergence applications of test chemicals formulated in the same manner. Plants ranged in height from 2 to 18 cm (1- to 4-leaf stage) for postemergence treatments. Treated plants and controls were maintained in a greenhouse for 13 to 15 days, after which time all species were compared to controls and visually evaluated. Plant response ratings, summarized in Table C, are based on a scale of 0 to 100 where 0 is no effect and 100 is complete control. A dash (-) response means no test result.

[2] = test system: barnyardgrass; assay: Test A postemergence; format: in vivo, Echinochloa crus-galli
Method in brief: (§3)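 Greenhouse pot test, loam/sand soil. Formulation: non-phytotoxic solvent mix plus surfactant. Pre: directed spray onto soil after sowing. Post: plants at 1–2 leaf, 2–10 cm. Rated visually vs untreated controls at ~10 d, 0 (no effect) to 100 (complete control).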

[3] = test system: morningglory; assay: Test C postemergence; format: in vivo, Ipomoea coccinea; settings: for Morningglory plant response rating / Plant response rating, Morningglory: scale 0 to 100 (0 no effect, 100 complete control)
Method in brief: (§4)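 Greenhouse herbicide screen. Pre: seeded loam/sand, sprayed at planting. Post: 1–4 leaf plants (2–18 cm) in peat-based mix. Formulation: solvent mixture + surfactant, non-phytotoxic. Readout: visual % control vs untreated, 13–15 d; dash = not tested.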

[4] = test system: ragweed; assay: Test C postemergence; format: in vivo, Ambrosia elatior; settings: for Ragweed plant response rating / Plant response rating, Ragweed: scale 0 to 100 (0 no effect, 100 complete control)
Excerpt: as §1, §2

[5] = test system: yellow nutsedge; assay: Test C postemergence; format: in vivo, Cyperus esculentus; settings: for Nutsedge, Yellow plant response rating / Plant response rating, Nutsedge, Yellow: scale 0 to 100 (0 no effect, 100 complete control)
Method in brief: as §4

[6] = test system: giant foxtail; assay: Test C postemergence; format: in vivo, Setaria faberii; settings: for Foxtail, Giant plant response rating / Plant response rating, Foxtail, Giant: scale 0 to 100 (0 no effect, 100 complete control)
Excerpt: as §1, §2

[7] = test system: wheat; assay: Test A postemergence; format: in vivo, Triticum aestivum
Method in brief: as §3

[8] = test system: galium; assay: Test C postemergence; format: in vivo, Galium aparine; settings: for Galium plant response rating / Plant response rating, Galium: scale 0 to 100 (0 no effect, 100 complete control)
Excerpt: as §1, §2

[9] = test system: sedge, umbrella; assay: Test B flooded paddy test; format: in vivo, Cyperus difformis; settings: Flood, 250 g ai/ha; 0 to 100 scale where 0 is no effect and 100 is complete control
Method in brief: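 Visual ratings on a 0 to 100 scale, where 100 means complete control, compared treated plants with controls after 13 to 15 days in a greenhouse. Treatment went into paddy water 3 cm deep over the soil, applied to plants at the 2-leaf stage.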

[10] = test system: giant foxtail; assay: Test A preemergence; format: in vivo, Setaria faberii
Method in brief: as §3

[11] = test system: velvetleaf; assay: Test A postemergence; format: in vivo, Abutilon theophrasti; settings: 1000 g ai/ha, 0 to 100 scale, 0 no effect, 100 complete control
Method in brief: as §3

[12] = 16 g ai/ha, postemergence, 0 is no effect, 100 is complete control
[13] = 31 g ai/ha, postemergence, visual rating, 13 to 15 days
[14] = 125 g ai/ha, postemergence, visual rating
[15] = 1000 g ai/ha, 0 to 100 scale, 0 no effect, 100 complete control
[16] = 1000 g ai/ha, 0 to 100 scale, 0 no effect, 100 complete control, approx. 10 days
[17] = Postemergence, 62 g ai/ha, 13 to 15 days
[18] = 125 g ai/ha, 0 to 100 scale, 0 no effect, 100 complete control
[19] = 500 g ai/ha, 0 to 100 scale where 0 is no effect and 100 is complete control
[20] = Postemergence, 31 g ai/ha, 13 to 15 days
[21] = 16 g ai/ha, postemergence, visual rating, 13 to 15 days

Compound: Fc1cccc(Oc2ncc(Cl)cn2)c1-n1cc(C2CC2)nn1 [Compound 155]
- Plant response rating (0 to 100), Wheat [1, 12]: 5
- Wheat plant response rating [1, 13]: 10
- Plant response rating, Wheat [1, 14]: 35
- Plant response rating, Wheat ([1]; Postemergence, 62 g ai/ha): 15
- Plant response rating, Barnyardgrass [2, 15]: 100
- Plant response rating (0 to 100), Morningglory [3, 12]: 70
- Morningglory plant response rating [3, 13]: 80
- Plant response rating, Morningglory [3, 14]: 85
- Plant response rating, Morningglory ([3]; Postemergence, 62 g ai/ha): 80
- Plant response rating (0 to 100), Ragweed [4, 12]: 50
- Ragweed plant response rating [4, 13]: 55
- Plant response rating, Ragweed [4, 14]: 85
- Plant response rating, Ragweed ([4]; Postemergence, 62 g ai/ha): 70
- Plant response rating (0 to 100), Nutsedge, Yellow [5, 12]: 5
- Nutsedge, Yellow plant response rating [5, 13]: 5
- Plant response rating, Nutsedge, Yellow [5, 14]: 5
- Plant response rating, Nutsedge, Yellow ([5]; Postemergence, 62 g ai/ha): 5
- Plant response rating (0 to 100), Foxtail, Giant [6, 12]: 0
- Foxtail, Giant plant response rating [6, 13]: 5
- Plant response rating, Foxtail, Giant [6, 14]: 25
- Plant response rating, Foxtail, Giant ([6]; Postemergence, 62 g ai/ha): 15
- Plant response rating, Wheat [7, 15]: 90
- Plant response rating (0 to 100), Galium [8, 12]: 75
- Galium plant response rating [8, 13]: 95
- Plant response rating, Galium [8, 14]: 100
- Plant response rating, Galium ([8]; Postemergence, 62 g ai/ha): 98
- Plant response rating, Sedge, Umbrella [9]: 80
- Foxtail, Giant plant response rating [10, 16]: 100

Compound: N#Cc1cccc(Oc2ncc(Cl)cn2)c1-n1cc(-n2ccc(C(F)(F)F)n2)cn1 [Compound 284]
- Wheat plant response rating [1, 13]: 0
- Plant response rating, Wheat [1, 14]: 5
- Plant response rating (0 to 100), Wheat ([1]; 250 g ai/ha, postemergence): 5
- Plant response rating, Wheat [1, 17]: 5
- Plant response rating, Barnyardgrass [2, 18]: 30
- Plant response rating, Barnyardgrass [2, 19]: 90
- Morningglory plant response rating [3, 13]: 70
- Plant response rating, Morningglory [3, 14]: 85
- Plant response rating (0 to 100), Morningglory ([3]; 250 g ai/ha, postemergence): 100
- Plant response rating, Morningglory [3, 17]: 100
- Ragweed plant response rating [4, 13]: 55
- Plant response rating, Ragweed [4, 14]: 50
- Plant response rating (0 to 100), Ragweed ([4]; 250 g ai/ha, postemergence): 80
- Plant response rating, Ragweed [4, 17]: 55
- Nutsedge, Yellow plant response rating [5, 13]: 0
- Plant response rating, Nutsedge, Yellow [5, 14]: 0
- Plant response rating (0 to 100), Nutsedge, Yellow ([5]; 250 g ai/ha, postemergence): 5
- Plant response rating, Nutsedge, Yellow [5, 17]: 0
- Foxtail, Giant plant response rating [6, 13]: 10
- Plant response rating, Foxtail, Giant [6, 14]: 20
- Plant response rating (0 to 100), Foxtail, Giant ([6]; 250 g ai/ha, postemergence): 25
- Plant response rating, Foxtail, Giant [6, 17]: 10
- Plant response rating, Wheat [7, 18]: 20
- Plant response rating, Wheat [7, 19]: 20
- Galium plant response rating [8, 13]: 100
- Plant response rating, Galium [8, 14]: 85
- Plant response rating (0 to 100), Galium ([8]; 250 g ai/ha, postemergence): 100
- Plant response rating, Galium [8, 17]: 85
- Plant response rating, Sedge, Umbrella [9]: 85
- Foxtail, Giant plant response rating (0 to 100 scale) ([10]; 125 g ai/ha): 90
- Foxtail, Giant plant response rating [10, 19]: 90

Compound: Clc1cnc(Oc2cccc(Br)c2-n2cc(Br)cn2)nc1 [Compound 65]
- Plant response rating (0 to 100), Wheat ([1]; 125 g ai/ha, postemergence): 10
- Plant response rating, Wheat [1, 20]: 0
- Plant response rating, Wheat ([1]; Postemergence, 62 g ai/ha): 5
- Plant response rating, Barnyardgrass [2, 15]: 100
- Plant response rating (0 to 100), Morningglory ([3]; 125 g ai/ha, postemergence): 95
- Plant response rating, Morningglory [3, 20]: 30
- Plant response rating, Morningglory ([3]; Postemergence, 62 g ai/ha): 65
- Plant response rating, Velvetleaf [11]: 100
- Plant response rating (0 to 100), Ragweed ([4]; 125 g ai/ha, postemergence): 35
- Plant response rating, Ragweed [4, 20]: 5
- Plant response rating, Ragweed ([4]; Postemergence, 62 g ai/ha): 25
- Plant response rating (0 to 100), Nutsedge, Yellow ([5]; 125 g ai/ha, postemergence): 15
- Plant response rating, Nutsedge, Yellow [5, 20]: 5
- Plant response rating, Nutsedge, Yellow ([5]; Postemergence, 62 g ai/ha): 5
- Foxtail, Giant plant response rating [6, 21]: 5
- Plant response rating (0 to 100), Foxtail, Giant ([6]; 125 g ai/ha, postemergence): 10
- Plant response rating, Foxtail, Giant [6, 20]: 10
- Plant response rating, Foxtail, Giant ([6]; Postemergence, 62 g ai/ha): 10
- Plant response rating, Wheat [7, 15]: 60
- Galium plant response rating [8, 21]: 100
- Plant response rating (0 to 100), Galium ([8]; 125 g ai/ha, postemergence): 98
- Plant response rating, Galium [8, 20]: 50
- Plant response rating, Galium ([8]; Postemergence, 62 g ai/ha): 85
- Plant response rating, Sedge, Umbrella [9]: 95
- Foxtail, Giant plant response rating [10, 16]: 100
